# Test results from US20260335205A1, “ACTIVE AGENT MODULATING THE ACTIVITY OF AN ION CHANNEL FOR USE IN REGULATION OF SKIN PIGMENTATION” (priority 2022, published 2026).
# Experiments:
# [1] = system: epidermal melanin content in human skin organ culture; test: Epidermal melanin content (Warthin-Starry / Fontana Masson histochemistry, quantitative histomorphometry) in ex vivo human skin organ culture; format: cell-based
# Experimental: (§1) Samples of human abdominal, temporal, and occipital skin were obtained with written patient consent and under ethical approval from healthy adult human subjects during elective plastic surgery performed for cosmetic reasons. Full-thickness human skin samples were prepared as 4-6 mm punches, placed on filter paper, and cultured at the air-liquid interphase under serum-free conditions in William's E medium supplemented only with insulin, hydrocortisone and L-glutamine, as described previously.
# For topical application of menthol (Sigma), a TRPM8 activator, a stock (5 M) was prepared in ethanol and dissolved at 37 °C at a final concentration of 1 mM in a 30% v/v solution of Polyethylene glycol 6000 (Sigma) in ethanol. For topical application of N-(3-Aminopropyl)-2-[(3-methylphenyl)methoxy]-N-(2-thienylmethyl)benzamide hydrochloride (AMTB) (Sigma), an TRPM8 inhibitor, a stock (50 mM) was prepared in water and dissolved at 37 °C at a final concentration of 10 μM in a 30% v/v solution of Polyethylene glycol 6000 (Sigma) in ethanol. Two μL droplets of this viscous solution containing menthol (1 mM), AMTB (10 μM), their combination, or ethanol as vehicle control were applied daily (up to 3 days) to the epidermis of skin biopsies.
# Histochemical visualization of melanin in skin sections was performed using the Warthin-Starry Stain Kit (Abcam) or Fontana Masson histochemistry. For Warthin-Starry histochemistry, formalin-fixed human skin/HF frozen sections were rinsed in distilled water and incubated with AgNO3(0.5 % in acidulated water) for 30 seconds at 50 °C. Next, the sample was incubated with developer solution (0.42% AgNO3, 5% Gelatin, and 0.15% hydroquinone in acidulated water) and incubated for 2-5 minutes at 50 °C. The reaction was stopped by consecutive rinses in hot (60 °C) tap water for 2 minutes. Incubation with Na2S2O3 (5 % in distilled water) for 1 minute, followed by 3 minutes of consecutive washes in tap water can also be used to remove unbound AgNO3 and to tone the brown coloring of melanin black. Brief counterstain with hematoxylin was used to visualize nuclei. […]
# Images were then obtained with a digital microscope (Keyence). Quantitative histomorphometric analysis was performed by assessing the relative intensity and the area of melanin stain in standardized reference areas with ImageJ (NIH; Bethesda, MD, USA). Briefly, for each parameter evaluated, multiple non-consecutive skin sections (at least 280 μm apart from each other) per punch biopsy were stained. Two skin punch biopsies were analyzed per experimental group unless indicated otherwise. The melanin content was then calculated based on the product of the fraction of area occupied by melanin and the mean shade of gray of the melanin, as described in detail elsewhere. […]
# gp100 = test: gp100-specific immunoreactivity (immunohistochemistry, quantitative histomorphometry) in ex vivo human skin organ culture; format: cell-based; settings: after 3 days
# Experimental: as §1
# For topical application of menthol (Sigma), a TRPM8 activator, a stock (5 M) was prepared in ethanol and dissolved at 37 °C at a final concentration of 1 mM in a 30% v/v solution of Polyethylene glycol 6000 (Sigma) in ethanol. […]
# After consecutive rinses in PBS, samples were incubated with rhodamine-conjugated secondary antibody (Jackson ImmunoResearch) diluted 1:200 in normal goat serum (2% in PBS) for 45 minutes at RT. […] Image acquisition and quantitative histomorphometric analysis were performed similar to as described for the Warthin-Starry technique, with a special emphasis on assessing the relative intensity and the area of gp100-specific immunoreactivity (IR) in the basal epidermal layer (i.e., the epidermal compartment where melanocytes reside).
# tyrosinase = test: In situ tyrosinase activity (quantitative histomorphometry) in ex vivo human skin organ culture; format: cell-based; settings: after 3 days
# Experimental: as §1, with “previously. […]” for “previously.”
# For the in situ detection of tyrosinase activity (the enzyme that catalyzes the rate-limiting step of melanin synthesis), human skin cryosections were fixed in an acetone/methanol solution (1:1 ratio) and blocked with H2O2 (0.3 % in PBS) for 15 minutes. […] Tyrosinase activity was detected with the TSA™ Biotin System (Akoya Biosciences). […]
# Image acquisition and quantitative histomorphometric analysis were performed similar to as described for the Warthin-Starry technique, with a special emphasis on assessing the relative intensity and the area of tyrosinase activity-specific immunoreactivity (IR) in the basal epidermal layer (i.e., the epidermal compartment where melanocytes reside).
# melanocyte tyrosinase = settings: background, phenolic compounds (e.g., hydroquinone and derivatives); cited from earlier work
# [2] = background; cited from earlier work
# [3] = topical menthol 1 mM, after 3 days, vs vehicle, Warthin-Starry (FIG. 1)
structure (smiles),measurement,setting,value
"Cc1cccc(COc2ccccc2C(=O)N(CCCN)Cc2cccs2)c1.Cl [AMTB, N-(3-Aminopropyl)-2-[(3-methylphenyl)methoxy]-N-(2-thienylmethyl)benzamide hydrochloride]",prevention of menthol-induced increase of epidermal melanin content,"[1]; topical AMTB 10 μM with menthol 1 mM, after 3 days, vs vehicle, Warthin-Starry (FIG. 4)",prevented the effect of the TRPM8 agonist menthol (1 mM) to increase epidermal melanin content
same,prevention of menthol-induced increase of gp100-specific IR in the basal epidermal layers,"gp100; topical AMTB 10 μM with menthol 1 mM, vs vehicle (FIG. 5)",prevented the effect of the TRPM8 agonist menthol (1 mM) to increase gp100-specific IR in the basal epidermal layers
same,prevention of menthol-induced increase of tyrosinase activity in the basal epidermal layers,"tyrosinase; topical AMTB 10 μM with menthol 1 mM, vs vehicle (FIG. 6)",prevented the effect of the TRPM8 agonist menthol (1 mM) to increase tyrosinase activity in the basal epidermal layers
Oc1ccc(O)cc1 [hydroquinone],inhibition of melanocyte tyrosinase,melanocyte tyrosinase,shown to inhibit melanocyte tyrosinase
same,DNA damage,[2],shown to cause DNA damage
same,chronic adverse effects,[2],"contact dermatitis, sclera and nail hyperpigmentation, impaired wound healing"
CC1CCC(C(C)C)C(O)C1 (centres unmarked) [menthol],epidermal melanin content,[1]; [3],markedly increases epidermal melanin content
same,melanin content in basal and suprabasal layers,[1]; [3],"increased the melanin content not only in the basal layer (i.e., the epidermal compartment where melanocytes reside) but also in the suprabasal layers"
same,epidermal melanin content verified by two independent histochemical technologies,"[1]; topical, human ex vivo skin organ cultures",upregulated epidermal melanin content
same,intensity level of gp100-specific IR in the basal epidermal layers,"gp100; topical menthol 1 mM, vs vehicle (FIG. 2)",markedly increases the intensity level of gp100-specific IR in the basal epidermal layers
same,intensity level of tyrosinase activity in the basal epidermal layers,"tyrosinase; topical menthol 1 mM, vs vehicle (FIG. 3)",markedly increases the intensity level of tyrosinase activity in the basal epidermal layers
